Values of other authors, collected in patent US20110217715A1, “GENE EXPRESSION IN DUCHENNE MUSCULAR DYSTROPHY” (CHILDREN'S HOSPITAL MEDICAL CENTER, priority 2008, published 2011).

Test system: individuals with DMD
Conditions: cited from earlier work

## CC(=O)OCC(=O)[C@@]12N=C(C)O[C@@H]1C[C@H]1[C@@H]3CCC4=CC(=O)C=C[C@]4(C)[C@H]3[C@@H](O)C[C@@]12C [deflazacort]
DMD individuals receiving deflazacort, relative to prednisone
  side effects / weight gain: fewer side effects, in particular, less weight gain
Individuals with DMD
  muscle function and strength: improved muscle function and strength
